Read-outs that look alike come from different tables or passages of the source.
Assays:
Experiment in all cases: microbe, parasite or virus in culture
Assay type in all cases: cell-based, Hepatitis C virus (HCV)
HCV replicon 1AY93H = conditions: Replicon Assay A
How it was run: (§1)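 HCV replicon RNA levels were quantified by TaqMan RT-PCR after 3-day compound exposure (0.5% DMSO, 5% FBS). Cyclophilin RNA, co-amplified in the same reaction, served as endogenous control; Ct values were converted to RNA amounts using linear regression standard curves.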

HCV replicon 1A = conditions: Replicon Assay A
How it was run: as §1

HCV replicon 2B = conditions: Replicon Assay A
How it was run: as §1

HCV replicon 1AQ30D = conditions: Replicon Assay B
Experimental: (§2) In an alternate assay (“Replicon Assay B”), 1000 cells were seeded per well in a 384-well collagen coated black plate from Greiner bio-one (Cat #781946) in 5% FBS. Inhibitors of this invention were added at 24 h post-seeding, and the plates were incubated for 3 days. Cells were subsequently lysed with Qiagen lysis buffer (Cat #1062731) to extract the RNA. HCV replicon RNA level was measured by real-time PCR using the RNA-to-CT kit from Applied Biosystem (Cat #4392656) and genotype-specific primers and probes. The amplicon was located within NS5B. […] (SEQ. ID NO. 2); the probe sequence was FAM-labeled […] (SEQ. ID NO. 3).
(§3) The real-time RT-PCR reactions were run on ABI PRISM 7900HT or Viia7 Sequence Detection System using the following program: 48° C. for 30 minutes, 95° C. for 10 minutes, 40 cycles of 95° C. for 15 sec, 60° C. for 1 minutes.
(§4) Data for replicons 1A, 1AY93H and 2B were obtained using Replicon Assay A and data for replicons 1AQ30D and 1B were obtained using Replicon Assay B.

HCV replicon 1B = conditions: Replicon Assay B
Experimental: as §2, §3, §4

[1] = read-out: 1A Y93H IC50, replicon 1AY93H
[2] = read-out: 1A Q30D IC50, replicon 1AQ30D
[3] = Hepatitis C virus, read-out: 2B IC50 (nM), replicon 2B
[4] = Hepatitis C virus, read-out: 1A Q30D IC50 (nM), replicon 1AQ30D

`COC(=O)N[C@H](C(=O)N1[C@@H]2C[C@@H]2C[C@H]1c1ncc(-c2ccc3c(c2)OC(c2ccc(C4CC4)s2)n2c-3cc3cc(-c4cnc([C@@H]5C[C@H]6C[C@H]6N5C(=O)[C@@H](NC(=O)OC)C(C)C)[nH]4)ccc32)[nH]1)C(C)C` (single isomer, unassigned) [Compound 8] was tested, and the IC50 (HCV replicon 1AY93H; replicon 1AY93H, read-out: 1A Y93H IC50) was 0.33 nM, the IC50 (HCV replicon 1A; replicon 1A) was 0.0174 nM and the IC50 (HCV replicon 2B; replicon 2B, read-out: 2B IC50) was 0.14 nM. It also gave an IC50 (HCV replicon 1AQ30D; replicon 1AQ30D, read-out: 1A Q30D IC50) of 0.47 nM and an IC50 (HCV replicon 1B; replicon 1B) of 0.0027 nM.

`COC(=O)N[C@H](C(=O)N1CCC[C@H]1c1ncc(-c2cc(F)c3c(c2)OC(c2ccc(C4CC4)s2)n2c-3cc3cc(-c4cnc([C@@H]5CCCN5C(=O)[C@@H](NC(=O)OC)C5CCOCC5)[nH]4)ccc32)[nH]1)C1CCOCC1` (single isomer, unassigned) [Compound 279] gave an IC50 (HCV replicon 1AY93H; [1]) of 0.21 nM, an IC50 (HCV replicon 1A; Hepatitis C virus, replicon 1A) of 0.0023 nM and an IC50 (HCV replicon 2B; read-out: 2B IC50, replicon 2B) of 0.017 nM. It also gave an IC50 (HCV replicon 1AQ30D; [2]) of 0.92 nM and an IC50 (HCV replicon 1B; Hepatitis C virus, replicon 1B) of 0.0029 nM.

`COC(=O)N[C@H](C(=O)N1CCC[C@H]1c1ncc(-c2cc(F)c3c(c2)OC(c2ccc(CC4CC4)s2)n2c-3cc3cc(-c4cnc([C@@H]5CCCN5C(=O)[C@@H](NC(=O)OC)C5CCOCC5)[nH]4)ccc32)[nH]1)C(C)C` (single isomer, unassigned) [Compound 356] gave an IC50 (HCV replicon 1AY93H; [1]) of 0.0214 nM, an IC50 (HCV replicon 1A; Hepatitis C virus, replicon 1A) of 0.0025 nM and an IC50 (HCV replicon 2B; read-out: 2B IC50, replicon 2B) of 0.0175 nM. It also gave an IC50 (HCV replicon 1AQ30D; [2]) of 0.152 nM and an IC50 (HCV replicon 1B; Hepatitis C virus, replicon 1B) of 0.0025 nM.

`COC(=O)NC(C(=O)N1CCCC1c1ncc(-c2cc(F)c3c(c2)OC(c2ccc(C4CC4)s2)n2c-3cc3cc(-c4cnc(C5CCCN5C(=O)C(NC(=O)OC)C5CCOC(C)C5)[nH]4)ccc32)[nH]1)C(C)C` (mixture of isomers) [Compound 849] showed an IC50 (HCV replicon 1A; HCV replicon 1A) of 0.0023 nM, an IC50 (HCV replicon 2B; HCV replicon 2B, read-out: 2B IC50) of 0.005 nM and an IC50 (HCV replicon 1AQ30D; HCV replicon 1A Q30D, read-out: 1A Q30D IC50) of 0.029 nM. For the same molecule, the IC50 (HCV replicon 1B; HCV replicon 1B) was 0.0029 nM.

Molecule `COC(=O)N[C@H](C(=O)N1CCC[C@H]1c1ncc(-c2cc(F)c3c(c2)OC(c2ccc(C4CC4)s2)n2c-3cc3cc(-c4cnc([C@@H]5C[C@H]6C[C@H]6N5C(=O)[C@@H](NC(=O)OC)C5CCOCC5)[nH]4)ccc32)[nH]1)C(C)C` (stereo partly drawn) [Compound 653] has an IC50 (HCV replicon 1AY93H; Hepatitis C virus, read-out: 1A Y93H IC50, HCV replicon 1A Y93H) of 0.00135 nM, an IC50 (HCV replicon 2B; Hepatitis C virus, read-out: 2B IC50, HCV replicon 2B) of 0.00144 nM and an IC50 (HCV replicon 1AQ30D; Hepatitis C virus, read-out: 1A Q30D IC50, HCV replicon 1A Q30D) of 0.00911 nM. For the same molecule, the IC50 (HCV replicon 1B; Hepatitis C virus, HCV replicon 1B) was 0.00155 nM.

In the case of `COC(=O)NC(C(=O)N1CCC[C@H]1c1ncc(-c2ccc3c(c2)cc2n3C(c3ccc(CC4CC4)s3)Oc3cc(-c4cnc([C@@H]5CCCN5C(=O)[C@@H](NC(=O)OC)C(C)C)[nH]4)cc(F)c3-2)[nH]1)C1CCOC(C)(C)C1` (single isomer, unassigned) [Compound 410], the IC50 (HCV replicon 1AY93H; read-out: 1A Y93H IC50, HCV replicon 1A Y93H) is reported as 0.0034 nM, the IC50 (HCV replicon 2B; read-out: 2B IC50, HCV replicon 2B) is reported as 0.0041 nM and the IC50 (HCV replicon 1AQ30D; read-out: 1A Q30D IC50, HCV replicon 1A Q30D) is reported as 0.106 nM. The IC50 (HCV replicon 1B; HCV replicon 1B) was 0.0033 nM.

In the case of `COC(=O)N[C@H](C(=O)N1[C@@H]2C[C@@H]2C[C@H]1c1ncc(-c2cc(F)c3c(c2)OC(c2ccc(C4CC4)s2)n2c-3cc3cc(-c4cnc([C@@H]5C[C@H]6C[C@H]6N5C(=O)[C@@H](NC(=O)OC)C(C)C)[nH]4)ccc32)[nH]1)C(C)C` (single isomer, unassigned) [Compound 88], the IC50 (HCV replicon 1AY93H; [1]) is reported as 0.007 nM, the IC50 (HCV replicon 2B; read-out: 2B IC50, replicon 2B) is reported as 0.59 nM and the IC50 (HCV replicon 1AQ30D; [2]) is reported as 0.3 nM. It also gave an IC50 (HCV replicon 1B; replicon 1B) of 0.0014 nM.

`CCCc1ccc(C2Oc3cc(-c4cnc([C@@H]5CCCN5C(=O)[C@@H](NC(=O)OC)C(C)C)[nH]4)cc(F)c3-c3cc4cc(-c5cnc([C@@H]6CCCN6C(=O)[C@@H](NC(=O)OC)C(C)C)[nH]5)ccc4n32)s1` (stereo partly drawn) [Compound 34] was tested, and the IC50 (HCV replicon 1AY93H; Hepatitis C virus, read-out: 1A Y93H IC50 (nM), replicon 1AY93H) was 0.005 nM, the IC50 (HCV replicon 1A; Hepatitis C virus, replicon 1A) was 0.0028 nM and the IC50 (HCV replicon 2B; [3]) was 0.1 nM. The IC50 (HCV replicon 1AQ30D; [4]) was 0.16 nM.

`COC(=O)N[C@H](C(=O)N1CCC[C@H]1c1ncc(-c2cc(F)c3c(c2)OC(c2csc(C4CC4)c2)n2c-3cc3cc(-c4cnc([C@@H]5CCCN5C(=O)[C@@H](NC(=O)OC)C(C)C)[nH]4)ccc32)[nH]1)C(C)C` (single isomer, unassigned) [Compound 322] showed an IC50 (HCV replicon 1AY93H; [1]) of 0.0297 nM, an IC50 (HCV replicon 2B; [3]) of 0.29 nM and an IC50 (HCV replicon 1AQ30D; [4]) of 0.82 nM.

For `COCC(C)(C)c1ccc(C2Oc3cc(-c4cnc([C@@H]5CCCN5C(=O)[C@@H](NC(=O)OC)C(C)C)[nH]4)cc(F)c3-c3cc4cc(-c5cnc([C@@H]6CCCN6C(=O)[C@@H](NC(=O)OC)C(C)C)[nH]5)ccc4n32)s1` (single isomer, unassigned) [Compound 399], the IC50 (HCV replicon 1AY93H; [1]) was 0.0145 nM, the IC50 (HCV replicon 1A; Hepatitis C virus, replicon 1A) was 0.0027 nM and the IC50 (HCV replicon 2B; read-out: 2B IC50, replicon 2B) was 0.274 nM. For the same molecule, the IC50 (HCV replicon 1AQ30D; [4]) was 0.292 nM.
